From PubChem BioAssay AID1919009 (Molecular Pharmacology Branch, DTP, NCI, 2023) come the findings set out here.

The assay relates to K24384-001-R-PDC complex spheroid growth. Nature of the assay: Anticancer human tumor K24384-001-R-PDC patient-derived pancreatic adenocarcinoma cell line growth inhibition [AhR]. As to conditions: for viability, T/C: stronger effect = lower value; for IC50: curve of compound. The source says: Multicellular complex tumor spheroid response to aryl hydrocarbon receptor antagonists in combination with a variety of drugs and investigational agents in selected tumor cell lines
The current study was undertaken to assess response to aryl hydrocarbon receptor antagonists in combination with standard-of-care drugs and investigational agents in solid tumor complex spheroid models. Complex spheroids include a stromal component modeled by human endothelial cells (HUVEC) and fibroblasts modeled by human mesenchymal stem cells (MSCs). The concentration ranges selected for each drug and investigational agent were based upon clinically achievable concentrations if the clinical Cmax of the agent was known.
Compounds. The drugs and investigational agents: BAY 2416964 (NSC825713), GNF351 (NSC835774), CH-223191 (NSC835775), CPI-455 (NSC825282), aza-TdCyd (NSC777586), decitabine (NSC127716), belinostat (NSC758774), entinostat (NSC756642), pevonedistat (NSC761192), tazemetostat (NSC777109), talazoparib (NSC765396), olaparib (NSC753686), selinexor (NSC780203), nedisertib (M3814, NSC802822), bortezomib (NSC756655), venetoclax (NSC766270), doxorubicin (NSC123127), elimusertib (BAY189344, NSC800525), ceralasertib (AZD6738, NSC777638), TAK-243 (NSC785004), alisertib (NSC759677), etoposide (NSC141540), topotecan (NSC609699), eribulin (NSC707389), gemcitabine (NSC613327), carboplatin (NSC241240), cisplatin (NSC119875), and SN-38 (NSC673596) were obtained from the National Cancer Institute (NCI) Developmental Therapeutics Program Chemical Repository (32). The FDA-approved anticancer drug set is available from the Developmental Therapeutics Program at https://dtp.cancer.gov/organization/dscb/obtaining/available plates.htm. […] The stock solutions were prepared in dimethyl sulfoxide (DMSO, Sigma-Aldrich, St. Louis, MO, cat. D2650), except for the platinum compounds which were prepared in saline (Quality Biological, Gaithersburg, MD, cat. 114-055-101), at 800-fold the tested concentration and stored at -70 degrees C prior to their use. All drugs and investigational agents were tested over a range starting from a high concentration at or near the clinical Cmax and decreasing in half-log increments. If the clinical Cmax for an agent had not been determined, the highest concentration tested was 10 microM (Table 1).
Cell Culture. All cells were maintained in an incubator at 37 degrees C and 5% CO2 with 95% humidity. The PDC lines were cultured according to standard operating procedures established by the NCI PDMR (https://pdmr.cancer.gov). Briefly, all PDCs were thawed and cultured in Matrigel-coated flasks prepared with a working solution of 1X Ham's F-12 nutrient mix, without supplementation (Invitrogen, Waltham, MA, cat. 11765054), 100 U/mL penicillin-streptomycin (Invitrogen, cat. 15140122), and 2.5% Matrigel (Corning Inc., Corning, NY, cat. 354248) for the first three passages. All PDCs were cultured in complete DMEM/F-12 media containing advanced DMEM/F-12 (Invitrogen, cat. 12634028), 4.9% defined fetal bovine serum, heat inactivated (HyClone Laboratories Inc., Logan, UT, cat. SH30070.03HI), 389 ng/mL hydrocortisone (Sigma-Aldrich, cat. H4001), 9.7 ng/mL human EGF recombinant protein (Invitrogen, cat. PHG0313), 23.4 microg/mL adenine (Sigma-Aldrich, cat. A2786), 97.3 U/mL penicillin-streptomycin (Invitrogen, cat. 15140122), 1.9 mM L-glutamine (Invitrogen, cat. 25030081), and 9.7 microM Y-27632 dihydrochloride (Tocris Bioscience, Bristol, United Kingdom, cat. 1254). The PDCs were cultured in complete DMEM/F12 media without 10 microM Y-27632 dihydrochloride for at least two passages prior to the screen. The established cell lines NCI-H1341 and […] were cultured in DMEM/F-12, HEPES (Invitrogen, cat. 11330032), 5% defined fetal bovine serum (HyClone Laboratories Inc., cat. SH30070.03), ITS premix universal culture supplement [insulin (5 microg/mL), transferrin (5 microg/mL), and selenious acid (5 ng/mL)] […]

Where “and” joins values, the source holds several entries; their conditions need not be identical. Equal values may be shown once. Some results are limits rather than exact numbers.

By viability, T/C is commonly meant the result in the treated group divided by that in the control group, in per cent. As a reminder, the IC50 is the concentration that gives 50% inhibition.
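Wherever viability, T/C is given: percent of DMSO vehicle-treated spheroid viability set as 100%.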

For the molecule `Cn1ncnc1C1c2n[nH]c(=O)c3cc(F)cc(c23)NC1c1ccc(F)cc1` (stereo not drawn), the IC50 is greater than 100 nM. For the same molecule, the viability, T/C (compound 0.000316 µM) was 104% and 93.7% and 94.2%. Also, the viability, T/C (compound 0.001 µM) was 117% and 105% and 102%. Besides, for the setting “compound 0.00316 µM”, the viability, T/C is 93.1% and 104% (2×). In addition, for the setting “compound 0.01 µM”, the viability, T/C is 91.7% and 102% and 105%. For the same molecule, the viability, T/C (compound 0.0316 µM) was 97% and 97.8% and 98.7%. Moreover, the viability, T/C (compound 0.1 µM) is 82% and 81.5% and 75.4%.

On to `NS(=O)(=O)OCC1CC(n2ccc3c(NC4CCc5ccccc54)ncnc32)CC1O` (stereo not drawn), for which the IC50 is 2590 nM and 1420 nM and 2770 nM. Moreover, for the setting “compound 0.0316 µM”, the viability, T/C was 102% and 101% and 100%. For the same molecule, under “compound 0.1 µM”, the viability, T/C was 119% and 96.5% and 107%. Besides, the viability, T/C (compound 0.316 µM) is 107% (2×) and 102%. The viability, T/C (compound 1 µM) is 95.7% and 59% and 75.3%. For the same molecule, the viability, T/C (compound 3.16 µM) is 40.4% and 32.9% and 49.2%. For the same molecule, the viability, T/C (compound 10 µM) is 27.5% and 21.6% and 24.1%.

`Nc1ccccc1NC(=O)c1ccc(CNC(=O)OCc2cccnc2)cc1`: the IC50 was 2590 nM and 2280 nM and 2140 nM. Besides, the viability, T/C (compound 0.0316 µM) was 94% and 112% and 106%. Moreover, under “compound 0.1 µM”, the viability, T/C was 98% and 108% and 107%. Moreover, the viability, T/C (compound 0.316 µM) was 85% and 93.4% and 96.5%. Also, the viability, T/C (compound 1 µM) is 78.2% and 67.5% and 60.9%. For the same molecule, under “compound 3.16 µM”, the viability, T/C is 43.8% and 43.9% and 45.6%. Also, the viability, T/C (compound 10 µM) is 8.72% and 6.99% and 9.95%.

For `Nc1ccn(C2OC(CO)C(O)C2(F)F)c(=O)n1` (stereo not drawn), the IC50 was 458 nM and 419 nM and 191 nM. For the same molecule, the viability, T/C (compound 0.0316 µM) was 75.8% and 84.6% and 71%. Moreover, the viability, T/C (compound 0.1 µM) was 67.7% and 76.7% and 59.5%. Also, the viability, T/C (compound 0.316 µM) is 50.6% and 52.6% and 41.6%. In addition, the viability, T/C (compound 1 µM) was 42.8% and 39.7% and 32.8%. For the same molecule, the viability, T/C (compound 3.16 µM) is 37.3% and 40.7% and 22.7%. Besides, under “compound 10 µM”, the viability, T/C is 28.5% and 31.3% and 20.2%.

Consider `Nc1ncn(C2CC(O)C(CO)O2)c(=O)n1` (stereo not drawn), for which the IC50 was greater than 1000 nM. The viability, T/C (compound 0.00316 µM) is 111% and 99.4% and 104%. Moreover, under “compound 0.01 µM”, the viability, T/C was 94.1% and 108% and 112%. In addition, under “compound 0.0316 µM”, the viability, T/C was 108% and 95.7% and 101%. Further, the viability, T/C (compound 0.1 µM) is 95.2% and 101% and 82.9%. Also, the viability, T/C (compound 0.316 µM) was 87.2% and 88.8% and 84.9%. Further, for the setting “compound 1 µM”, the viability, T/C was 79.4% and 79.5% and 76.8%.

Turning to `Nc1ncn(C2CC(O)C(CO)S2)c(=O)n1` (stereo not drawn), the IC50 was greater than 300 nM. Moreover, the viability, T/C (compound 0.000949 µM) is 110% and 102% and 115%. Moreover, for the setting “compound 0.003 µM”, the viability, T/C was 104% and 111% and 121%. The viability, T/C (compound 0.00949 µM) is 105% and 93% and 90.2%. The viability, T/C (compound 0.03 µM) was 98% and 87.8% and 92.5%. The viability, T/C (compound 0.0949 µM) is 80.2% and 77.9% and 76.2%. Also, the viability, T/C (compound 0.3 µM) was 81.4% and 64.2% and 70.1%.

As for `O=C(C=Cc1cccc(S(=O)(=O)Nc2ccccc2)c1)NO`, the IC50 was 2100 nM and 2280 nM and 2000 nM. Further, the viability, T/C (compound 0.0316 µM) is 104% and 118% and 108%. For the same molecule, the viability, T/C (compound 0.1 µM) was 104% and 115% and 114%. For the setting “compound 0.316 µM”, the viability, T/C was 96.2% and 116% and 99.6%. Moreover, for the setting “compound 1 µM”, the viability, T/C was 78.5% and 87.3% and 81.8%. The viability, T/C (compound 3.16 µM) is 34.4% and 35.4% and 29.5%. Where the note is “compound 10 µM”, the viability, T/C is 8.12% and 8.37% and 2.97%.

For `O=C(C=Cn1cnc(-c2cc(C(F)(F)F)cc(C(F)(F)F)c2)n1)NNc1cnccn1`, the IC50 is 246 nM and 245 nM and 422 nM. Besides, the viability, T/C (compound 0.00949 µM) was 103% and 108% and 124%. In addition, under “compound 0.03 µM”, the viability, T/C was 102% and 118% and 111%. For the same molecule, under “compound 0.0949 µM”, the viability, T/C was 83.7% and 73.7% and 79.4%. In addition, where the note is “compound 0.3 µM”, the viability, T/C was 42.4% and 48.4% and 54.7%. The viability, T/C (compound 0.949 µM) is 29.9% and 28.1% and 41.4%. For the same molecule, the viability, T/C (compound 3 µM) is 22.9% and 24.3% and 29.5%.

For the molecule `O=C(c1cc(Cc2n[nH]c(=O)c3ccccc23)ccc1F)N1CCN(C(=O)C2CC2)CC1`, the IC50 was greater than 10000 nM. Also, the viability, T/C (compound 0.0316 µM) was 104% and 103% and 116%. In addition, where the note is “compound 0.1 µM”, the viability, T/C was 132% and 100% and 105%. Further, the viability, T/C (compound 0.316 µM) was 105% and 95.4% and 115%. Also, the viability, T/C (compound 1 µM) was 95.4% and 94.5% and 90.4%. For the same molecule, the viability, T/C (compound 3.16 µM) was 88.2% and 96.2% and 90.5%. Also, the viability, T/C (compound 10 µM) was 82.8% and 62.4% and 76%.
